The assay concerns the target human full-length MKNK1 (Homo sapiens (Human), UniProt Q9BUB5, T344D). The assay can be described thus: MKNK1 kinase high ATP assay (TR-FRET). The assay is classed as biochemical. To be noted: 2 mM ATP, 15 min preincubation with enzyme, GST-MKNK1 (T344D). How it is done:
MKNK1 Kinase High ATP Assay
MKNK1-inhibitory activity at high ATP of compounds of the present invention after their preincubation with MKNK1 was quantified employing the TR-FRET-based MKNK1 high ATP assay as described in the following paragraphs.
A recombinant fusion protein of Glutathione-S-Transferase (GST, N-terminally) and human full-length MKNK1 (amino acids 1-424 and T344D of accession number BAA 19885.1), expressed in insect cells using baculovirus expression system and purified via glutathione sepharose affinity chromatography, was purchased from Carna Biosciences (product no 02-145) and used as enzyme. As substrate for the kinase reaction the biotinylated peptide biotin-Ahx-IKKRKLTRRKSLKG (SEQ ID NO: 1) (C-terminus in amide form) was used, which can be purchased e.g. from the company Biosyntan (Berlin-Buch, Germany)
For the assay 50 nL of a 100 fold concentrated solution of the test compound in DMSO was pipetted into a black low volume 384 well microtiter plate (Greiner Bio-One, Frickenhausen, Germany), 2 μL of a solution of MKNK1 in aqueous assay buffer [50 mM HEPES pH 7.5, 5 mM MgCl2, 1.0 mM dithiothreitol, 0.005% (v/v) Nonidet-P40 (Sigma)] was added and the mixture was incubated for […] at 22° C. to allow pre-binding of the test compounds to the enzyme before the start of the kinase reaction. Then the kinase reaction was started by the addition of 3 μL of a solution of adenosine-tri-phosphate (ATP, 3.3 mM=>final conc. in the 5 μL assay volume is 2 mM) and substrate (0.1 μM=>final conc. in the 5 μL assay volume is 0.06 μM) in assay buffer and the resulting mixture was incubated for a reaction time of 30 min at 22° C. The concentration of MKNK1 was adjusted depending of the activity of the enzyme lot and was chosen appropriate to have the assay in the linear range, typical concentrations were in the range of 0.003 μg/mL. The reaction was stopped by the addition of 5 μL of a solution of TR-FRET detection reagents (5 nM streptavidine-XL665 [Cisbio Bioassays, Codolet, France] and 1 nM anti-ribosomal protein S6 (pSer236)-antibody from Invitrogen [#44921G] and 1 nM LANCE EU-W1024 labeled ProteinG [Perkin-Elmer, product no. AD0071]) in an aqueous EDTA-solution (100 mM EDTA, 0.1% (w/v) bovine serum albumin in 50 mM HEPES pH 7.5).
The resulting mixture was incubated for 1 h at 22° C. to allow the formation of complex between the phosphorylated biotinylated peptide and the detection reagents. Subsequently the amount of phosphorylated substrate was evaluated by measurement of the resonance energy transfer from the Eu-chelate to the streptavidine-XL. Therefore, the fluorescence emissions at 620 nm and 665 nm after excitation at 350 nm were measured in a TR-FRET reader, e.g. a Rubystar (BMG Labtechnologies, Offenburg, Germany) or a Viewlux (Perkin-Elmer). The ratio of the emissions at 665 nm and at […] was taken as the measure for the amount of phosphorylated substrate. The data were normalised (enzyme reaction without inhibitor=0% inhibition, all other assay components but no enzyme=100% inhibition).
A general note: In TR-FRET formats the signal depends on donor and acceptor labels being close together.

Counter-ions that a name gives are not always drawn.

The source of these data is patent publication US11311520B2, “Substituted dihydroimidazopyridinediones as MKNK1 and MKNK2 inhibitors” (Bayer Pharma Aktiengesellschaft, priority 2017, dated 2022).

human full-length MKNK1, sequence (Q9BUB5 other isoform, or with tags, fused parts or gaps T344D): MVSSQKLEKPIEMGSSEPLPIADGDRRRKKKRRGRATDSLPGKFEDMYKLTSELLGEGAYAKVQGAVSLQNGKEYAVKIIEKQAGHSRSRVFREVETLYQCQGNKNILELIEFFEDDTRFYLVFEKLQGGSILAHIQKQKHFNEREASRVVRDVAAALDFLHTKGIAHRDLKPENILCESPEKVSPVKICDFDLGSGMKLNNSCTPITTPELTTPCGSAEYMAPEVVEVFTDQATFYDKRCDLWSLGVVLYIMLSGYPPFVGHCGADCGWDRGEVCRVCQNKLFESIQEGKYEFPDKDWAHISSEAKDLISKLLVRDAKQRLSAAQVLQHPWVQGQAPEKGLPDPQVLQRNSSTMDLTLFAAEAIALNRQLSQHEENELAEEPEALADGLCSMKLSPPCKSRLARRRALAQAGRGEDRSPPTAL

As a reminder, the IC50 is the point on the concentration scale where inhibition reaches its midpoint. A high value points to weaker potency. In the case of `Cc1cc(Nc2ncnc3[nH]ccc23)c(=O)n2c1C(=O)N[C@]21CC[C@@](O)(C(F)(F)C(F)(F)F)CC1` [Example 194, (cis)-4-hydroxy-8′-methyl-4-(pentafluoroethyl)-6′-[(7H-pyrrolo[2,3-d]pyrimidin-4-yl)amino]-2′H-spiro[cyclohexane-1,3′-imidazo[1,5-a]pyridine]-1′,5′-dione], the midpoint of inhibition, the IC50, lay at 12.2 nM.
For the setting “methanesulfonate”, `Cc1cc(Nc2ncnc3[nH]ccc23)c(=O)n2c1C(=O)NC21CCC(F)(F)CC1` [Example 91, 4,4-Difluoro-8′-methyl-6′-(7H-pyrrolo[2,3-d]pyrimidin-4-ylamino)-2′H-spiro[cyclohexane-1,3′-imidazo[1,5-a]pyridine]-1′,5′-dione methanesulfonate] came in with an IC50 of 1.1 nM.
For the molecule `Cc1cc(Nc2ncnc3sc(C(=O)O)c(C)c23)c(=O)n2c1C(=O)NC21CCCC1` [Example 95, 5-Methyl-4-[(8′-methyl-1′,5′-dioxo-1′,5′-dihydro-2′H-spiro[cyclopentane-1,3′-imidazo[1,5-a]pyridin]-6′-yl)amino]thieno[2,3-d]pyrimidine-6-carboxylic acid], half-maximal inhibition (IC50) required 5.8 nM.
Same read-out and setting: the figure for `Cc1cc(Nc2ncnc3c2CNC3)c(=O)n2c1C(=O)NC2(C)C` [Example 165, 6-(6,7-Dihydro-5H-pyrrolo[3,4-d]pyrimidin-4-ylamino)-3,3,8-trimethyl-2,3-dihydroimidazo[1,5-a]pyridine-1,5-dione] is 168 nM; for `Cc1cc(Nc2ncnc3sc(C(=O)O)cc23)c(=O)n2c1C(=O)NC21CCCCC1` [Example 9, 4-[(8′-Methyl-1′,5′-dioxo-1′,5′-dihydro-2′H-spiro[cyclohexane-1,3′-imidazo[1,5-a]pyridin]-6′-yl)amino]thieno[2,3-d]pyrimidine-6-carboxylic acid] it is 82.6 nM; for `Cc1cc(Nc2ncnc3sccc23)c(=O)n2c1C(=O)N[C@]21CC[C@@](O)(C(F)(F)C(F)(F)F)CC1` [Example 193, (cis)-4-hydroxy-8′-methyl-4-(pentafluoroethyl)-6′-[(thieno[2,3-d]pyrimidin-4-yl)amino]-2′H-spiro[cyclohexane-1,3′-imidazo[1,5-a]pyridine]-1′,5′-dione] it is 29.8 nM.
`Cc1cc(Nc2ncnc3sccc23)c(=O)n2c1C(=O)NC21CCCCC1` [Example 31, 8′-Methyl-6′-(thieno[2,3-d]pyrimidin-4-ylamino)-2′H-spiro[cyclohexane-1,3′-imidazo[1,5-a]pyridine]-1′,5′-dione hydrochloride] showed an IC50 (hydrochloride) of 16.8 nM.
`Cc1cc(Nc2ncnc3ccc(Cl)cc23)c(=O)n2c1C(=O)NC21CCC(F)(F)CC1` [Example 99, 6′-[(6-chloroquinazolin-4-yl)amino]-4,4-difluoro-8′-methyl-2′H-spiro[cyclohexane-1,3′-imidazo[1,5-a]pyridine]-1′,5′-dione] showed an IC50 of 18.8 nM.
The same measure, in the same setting: next, `COCCN(C)C(=O)c1sc2ncnc(Nc3cc(C)c4n(c3=O)C3(CCCCC3)NC4=O)c2c1C` [Example 18, N-(2-methoxyethyl)-N,5-dimethyl-4-[(8′-methyl-1′,5′-dioxo-1′,5′-dihydro-2′H-spiro[cyclohexane-1,3′-imidazo[1,5-a]pyridin]-6′-yl)amino]thieno[2,3-d]pyrimidine-6-carboxamide]: 105 nM; `Cc1cc(Nc2ncnc(N)n2)c(=O)n2c1C(=O)NC21CCC1` [Example 147, 6′-[(4-Amino-1,3,5-triazin-2-yl)amino]-8′-methyl-2′H-spiro[cyclobutane-1,3′-imidazo[1,5-a]pyridine]-1′,5′-dione]: 12.7 nM.
Same read-out and setting: next, `Cc1cc(Nc2ncnc3nc(CC(F)(F)F)[nH]c23)c(=O)n2c1C(=O)NC21CCCCC1` [Example 37, 8′-Methyl-6′-{[8-(2,2,2-trifluoroethyl)-7H-purin-6-yl]amino}-2′H-spiro[cyclohexane-1,3′-imidazo[1,5-a]pyridine]-1′,5′-dione]: 10.3 nM; `Cc1cc(Nc2ncnc3c2CN(C(=O)OC(C)(C)C)C3)c(=O)n2c1C(=O)NC21CCC1` [Example 162, tert-Butyl 4-[(8′-methyl-1′,5′-dioxo-1′,5′-dihydro-2′H-spiro[cyclobutane-1,3′-imidazo[1,5-a]pyridin]-6′-yl)amino]-5,7-dihydro-6H-pyrrolo[3,4-d]pyrimidine-6-carboxylate]: 21.7 nM; `Cc1cc(Nc2ncnc3ccc(C(F)(F)F)cc23)c(=O)n2c1C(=O)NC21CCCCC1` [Example 124, 8′-Methyl-6′-{[6-(trifluoromethyl)quinazolin-4-yl]amino}-2′H-spiro[cyclohexane-1,3′-imidazo[1,5-a]pyridine]-1′,5′-dione]: 49.9 nM.
For `Cc1cc(Nc2ncnc3[nH]ccc23)c(=O)n2c1C(=O)NC21CCC(F)(F)CC1` [Example 92, 4,4-Difluoro-8′-methyl-6′-(7H-pyrrolo[2,3-d]pyrimidin-4-ylamino)-2′H-spiro[cyclohexane-1,3′-imidazo[1,5-a]pyridine]-1′,5′-dione hydrochloride], under “hydrochloride”, the IC50 came out at 1.2 nM.
In turn, `COc1ccc2c(Nc3cc(C)c4n(c3=O)C3(CCCCC3)NC4=O)ncnc2c1` [Example 116, 6′-[(7-Methoxyquinazolin-4-yl)amino]-8′-methyl-2′H-spiro[cyclohexane-1,3′-imidazo[1,5-a]pyridine]-1′,5′-dione] returned an IC50 of 4 nM.
In turn, `Cc1cc(Nc2ncnc(N)n2)c(=O)n2c1C(=O)NC21CCC(F)(F)CC1` [Example 94, 6′-[(4-Amino-1,3,5-triazin-2-yl)amino]-4,4-difluoro-8′-methyl-2′H-spiro[cyclohexane-1,3′-imidazo[1,5-a]pyridine]-1′,5′-dione] displayed a half-inhibitory concentration (IC50) of 27.8 nM.
As to `Cc1cc(Nc2ncnc3sc(C(=O)N4CC(N)C4)cc23)c(=O)n2c1C(=O)NC21CCCCC1` [Example 28, 6′-({6-[(3-Aminoazetidin-1-yl)carbonyl]thieno[2,3-d]pyrimidin-4-yl}amino)-8′-methyl-2′H-spiro[cyclohexane-1,3′-imidazo[1,5-a]pyridine]-1′,5′-dione], the IC50 amounted to 0.6 nM.
Under “hydrochloride”, `Cc1cc(Nc2ncnc3sc(C(=O)N(C)C)cc23)c(=O)n2c1C(=O)NC21CCCCC1` [Example 33, N,N-Dimethyl-4-[(8′-methyl-1′,5′-dioxo-1′,5′-dihydro-2′H-spiro[cyclohexane-1,3′-imidazo[1,5-a]pyridin]-6′-yl)amino]thieno[2,3-d]pyrimidine-6-carboxamide hydrochloride] showed an IC50 of 70.7 nM.
`Cc1cc(Nc2ncnc3sc(C(=O)N4C[C@H]5C[C@@H]4CO5)cc23)c(=O)n2c1C(=O)NC21CCCCC1` [Example 65, 8′-Methyl-6′-({6-[(1R,4R)-2-oxa-5-azabicyclo[2.2.1]hept-5-ylcarbonyl]thieno[2,3-d]pyrimidin-4-yl}amino)-2′H-spiro[cyclohexane-1,3′-imidazo[1,5-a]pyridine]-1′,5′-dione] showed an IC50 of 5.9 nM.
Same read-out and setting: next, `Cc1cc(Nc2ncnc3sc(C(=O)NCCN(C)C)cc23)c(=O)n2c1C(=O)NC21CCCC1` [Example 59, N-[2-(Dimethylamino)ethyl]-4-[(8′-methyl-1′,5′-dioxo-1′,5′-dihydro-2′H-spiro[cyclopentane-1,3′-imidazo[1,5-a]pyridin]-6′-yl)amino]thieno[2,3-d]pyrimidine-6-carboxamide]: 2.7 nM; `Cc1cc(Nc2ncnc3ccc(Cl)cc23)c(=O)n2c1C(=O)N[C@]21CC[C@@](O)(C(F)(F)C(F)(F)F)CC1` [Example 195, (cis)-6′-[(6-chloroquinazolin-4-yl)amino]-4-hydroxy-8′-methyl-4-(pentafluoroethyl)-2′H-spiro[cyclohexane-1,3′-imidazo[1,5-a]pyridine]-1′,5′-dione]: 342 nM; `Cc1cc(Nc2ncnc3ccc(Cl)cc23)c(=O)n2c1C(=O)NC21CCC1` [Example 167, 6′-[(6-Chloroquinazolin-4-yl)amino]-8′-methyl-2′H-spiro[cyclobutane-1,3′-imidazo[1,5-a]pyridine]-1′,5′-dione]: 5.7 nM.
